Reference: patent publication US6706663B2, “Herbicidal 3-heterocyclic substituted benzisothiazole and benzisoxazole compounds” (Wyeth, priority 2000, dated 2004)

Tests used:
[1] = system: ORYSAT (Rice, Tebonnet); experiment: Preemergence herbicidal evaluation; type: in vivo, Oryza sativa, (L.) Tebonnet; conditions: rated 4-5 weeks after treatment
[2] = system: SAGPY (Sagittaria pygmaea); experiment: Flooded paddy, preemergence weed control; type: in vivo, L.; conditions: rated 3-4 weeks after treatment, 0-9 rating scale
How it was run: (§1)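 Ratings of 0-9 reflect visual comparison with a control for stand, vigor, deformity, size, chlorosis and overall look. Propagules were placed in shallow silt loam (top 0.5 cm) under a continuous 1.5–3 cm flood and grown in the greenhouse.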

[3] = system: GALAP (Galium aparine); experiment: Postemergence herbicidal evaluation; type: in vivo; conditions: postemergence
How it was run: (§2)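 Visual 0–9 injury scores versus control plants, covering stand, vigour, malformation, size, chlorosis and general appearance, taken four to five weeks post-spray and averaged over replicate tests. Plants were sprayed at roughly two weeks old and held on greenhouse benches.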

[4] = system: CYPIR (Cyperus iria); experiment: Flooded paddy, preemergence weed control; type: in vivo; conditions: rated 3-4 weeks after treatment, 0-9 rating scale
How it was run: as §1

[5] = system: IPOHE (Ipomoea hederacea); experiment: Postemergence herbicidal evaluation; type: in vivo, (L.) Jacq.; conditions: postemergence
How it was run: as §2

[6] = system: ABUTH (Abutilon theophrasti); experiment: Postemergence herbicidal evaluation; type: in vivo, Medic.; conditions: postemergence
How it was run: as §2

[7] = system: GLXMAW (Soybean, Williams); experiment: Preemergence herbicidal evaluation; type: in vivo, Glycine max, (L.) Merr. cv Williams; conditions: rated 4-5 weeks after treatment
[8] = system: ECHCG (Echinochloa crus-galli); experiment: Postemergence herbicidal evaluation; type: in vivo, (L.) Beau; conditions: postemergence
How it was run: as §2

[9] = system: GALAP (Galium aparine); experiment: Preemergence herbicidal evaluation; type: in vivo; conditions: rated 4-5 weeks after treatment
How it was run: (§3)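 Rating 0–9, visual, vs control; 4–5 wk after spraying seeded cups with compound in aq. acetone; conventional greenhouse care.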

[10] = system: TRZAWR (Wheat, Winter, cv Riband); experiment: Preemergence herbicidal evaluation; type: in vivo, Triticum aestivum; conditions: rated 4-5 weeks after treatment
How it was run: as §3

[11] = system: IPOHE (Ipomoea hederacea); experiment: Preemergence herbicidal evaluation; type: in vivo, (L.) Jacq.; conditions: rated 4-5 weeks after treatment
[12] = system: GLXMAW (Soybean, Williams); experiment: Postemergence herbicidal evaluation; type: in vivo, Glycine max, (L.) Merr. cv Williams; conditions: postemergence
How it was run: as §2

[13] = system: CHEAL (Chenopodium album); experiment: Postemergence herbicidal evaluation; type: in vivo, L.; conditions: postemergence
How it was run: as §2

[14] = system: CASOB (Cassia obtusifolia); experiment: Postemergence herbicidal evaluation; type: in vivo, L.; conditions: postemergence
How it was run: as §2

[15] = system: AMBEL (Ambrosia artemisifolia); experiment: Postemergence herbicidal evaluation; type: in vivo, L.; conditions: postemergence
How it was run: as §2

[16] = system: CHEAL (Chenopodium album); experiment: Preemergence herbicidal evaluation; type: in vivo, L.; conditions: rated 4-5 weeks after treatment
How it was run: as §3

[17] = system: CASOB (Cassia obtusifolia); experiment: Preemergence herbicidal evaluation; type: in vivo, L.; conditions: rated 4-5 weeks after treatment
How it was run: as §3

[18] = system: AMBEL (Ambrosia artemisifolia); experiment: Preemergence herbicidal evaluation; type: in vivo, L.; conditions: rated 4-5 weeks after treatment
How it was run: as §3

[19] = system: ECHORC (Echinochloa oryzoides); experiment: Flooded paddy, preemergence weed control; type: in vivo, Echinochloa oryzoides (Ard.) Fritsch.; conditions: rated 3-4 weeks after treatment, 0-9 rating scale
How it was run: as §1

[20] = system: ZEAMX (Corn, Field); experiment: Preemergence herbicidal evaluation; type: in vivo, Zea mays, L.; conditions: rated 4-5 weeks after treatment
[21] = system: ZEAMX (Corn, Field); experiment: Postemergence herbicidal evaluation; type: in vivo, Zea mays, L.; conditions: postemergence
How it was run: as §2

## Cn1c(C(F)(F)F)cc(=O)n(-c2ccc3snc(-c4sccc4CBr)c3c2)c1=O [Compound 80, 3-[3-[3-(bromomethyl)-2-thienyl]-1,2-benzisothiazol-5-yl]-1-methyl-6-(trifluoromethyl)uracil]
[1]; Rate 0.0620 kg/ha
  Preemergence herbicidal rating ORYSAT: 0.5
[1]; Rate 0.1250 kg/ha
  Preemergence herbicidal rating ORYSAT: 2.5
[1]; Rate 0.2500 kg/ha
  Preemergence herbicidal rating ORYSAT: 6.0
[2]; rate 0.0080 kg/ha
  herbicidal rating, SAGPY: 0.0
[2]; rate 0.0320 kg/ha
  herbicidal rating, SAGPY: 4.5
[2]; rate 0.1250 kg/ha
  herbicidal rating, SAGPY: 7.0
[3]; rate 0.0320 kg/ha
  GALAP herbicidal rating: 3.0
[3]; rate 0.0620 kg/ha
  GALAP herbicidal rating: 4.0
[4]; rate 0.0080 kg/ha
  herbicidal rating, CYPIR: 0.0
[4]; rate 0.0320 kg/ha
  herbicidal rating, CYPIR: 4.5
[4]; rate 0.1250 kg/ha
  herbicidal rating, CYPIR: 9.0
[5]; rate 0.0320 kg/ha
  IPOHE herbicidal rating: 9.0
[5]; rate 0.0620 kg/ha
  IPOHE herbicidal rating: 9.0
[6]; rate 0.0320 kg/ha
  ABUTH herbicidal rating: 6.0
[6]; rate 0.0620 kg/ha
  ABUTH herbicidal rating: 9.0
[7]; Rate 0.0620 kg/ha
  Preemergence herbicidal rating GLXMAW: 0.5
[7]; Rate 0.1250 kg/ha
  Preemergence herbicidal rating GLXMAW: 0.5
[7]; Rate 0.2500 kg/ha
  Preemergence herbicidal rating GLXMAW: 6.0
[8]; rate 0.0320 kg/ha
  ECHCG herbicidal rating: 0.0
[8]; rate 0.0620 kg/ha
  ECHCG herbicidal rating: 0.0
[9]; Rate 0.0620 kg/ha
  Preemergence herbicidal rating GALAP: 4.0
[9]; Rate 0.1250 kg/ha
  Preemergence herbicidal rating GALAP: 5.0
[9]; Rate 0.2500 kg/ha
  Preemergence herbicidal rating GALAP: 7.0
[10]; Rate 0.0620 kg/ha
  Preemergence herbicidal rating TRZAWR: 0.0
[10]; Rate 0.1250 kg/ha
  Preemergence herbicidal rating TRZAWR: 0.0
[10]; Rate 0.2500 kg/ha
  Preemergence herbicidal rating TRZAWR: 2.0
[11]; Rate 0.0620 kg/ha
  Preemergence herbicidal rating IPOHE: 0.5
[11]; Rate 0.1250 kg/ha
  Preemergence herbicidal rating IPOHE: 2.0
[11]; Rate 0.2500 kg/ha
  Preemergence herbicidal rating IPOHE: 4.0
[12]; rate 0.0320 kg/ha
  GLXMAW herbicidal rating: 5.0
[12]; rate 0.0620 kg/ha
  GLXMAW herbicidal rating: 7.0
[13]; rate 0.0320 kg/ha
  CHEAL herbicidal rating: 9.0
[13]; rate 0.0620 kg/ha
  CHEAL herbicidal rating: 9.0
[14]; rate 0.0320 kg/ha
  CASOB herbicidal rating: 5.0
[14]; rate 0.0620 kg/ha
  CASOB herbicidal rating: 5.0
[15]; rate 0.0320 kg/ha
  AMBEL herbicidal rating: 7.0
[15]; rate 0.0620 kg/ha
  AMBEL herbicidal rating: 9.0
[16]; Rate 0.0620 kg/ha
  Preemergence herbicidal rating CHEAL: 5.5
[16]; Rate 0.1250 kg/ha
  Preemergence herbicidal rating CHEAL: 7.5
[16]; Rate 0.2500 kg/ha
  Preemergence herbicidal rating CHEAL: 9.0
[17]; Rate 0.0620 kg/ha
  Preemergence herbicidal rating CASOB: 0.0
[17]; Rate 0.1250 kg/ha
  Preemergence herbicidal rating CASOB: 0.0
[17]; Rate 0.2500 kg/ha
  Preemergence herbicidal rating CASOB: 1.5
[18]; Rate 0.0620 kg/ha
  Preemergence herbicidal rating AMBEL: 5.0
[18]; Rate 0.1250 kg/ha
  Preemergence herbicidal rating AMBEL: 9.0
[18]; Rate 0.2500 kg/ha
  Preemergence herbicidal rating AMBEL: 9.0
[19]; rate 0.0080 kg/ha
  herbicidal rating, ECHORC: 1.0
[19]; rate 0.0320 kg/ha
  herbicidal rating, ECHORC: 4.0
[19]; rate 0.1250 kg/ha
  herbicidal rating, ECHORC: 8.0
[20]; Rate 0.0620 kg/ha
  Preemergence herbicidal rating ZEAMX: 0.5
[20]; Rate 0.1250 kg/ha
  Preemergence herbicidal rating ZEAMX: 1.5
[20]; Rate 0.2500 kg/ha
  Preemergence herbicidal rating ZEAMX: 2.5
[21]; rate 0.0320 kg/ha
  ZEAMX herbicidal rating: 3.5
[21]; rate 0.0620 kg/ha
  ZEAMX herbicidal rating: 5.5
